Assay [1] has as its system isolated polymorphonuclear leucocytes (PMNL). The assay is described as follows: Chemiluminescence test (CL), PMNL method (isolated granulocytes). The assay is classed as cell-based, human. The conditions noted are these: for Peak-Maximum: control 2.12; for tmax: control 50.0. How it is done: (§1) 2. Chemiluminescence test (CL)
(§2) The low light yield of such CL-reactions of phagocytised cells is increased in the in-vitro-experiment by the addition of substances which are oxydated by activated oxygen and thus produce light of a certain wavelength, which can be physically measured. Suitable substrates are luminole (5-amino-2,3-dihydro-1,4-phthalazindione) and lucigenine (10,10'-dimethyl-9,9'-biacri-diniumdinitrate), which increase the CL-response by 10^3 times.
(§3) All tests were carried out in 6-channel-Biolumat LB 9505 of Berthold, connected to an Apple-computer with a CL-evaluation program of Berthold.
(§4) Lucigenine was chosen for light amplification which emits photons at a narrow wavelength distribution of about 510 nm and thus almost lies in the optimum of the photo-multiplier sensitivity.
(§5) The pH-value of the measuring solution should be between 7.1 and 7.4, which is obtained by the addition of veronal-buffered salt solution. The test substances were dissolved in phosphate-buffered salt solution, (PBS-buffer). Both buffer systems contain 0.1% of glucose, because the "respiratory-burst"-reaction is connected with an increase of the glucose-metabolism.
(§6) Opsonised zymosan was used for phagocyte-activation. The measurement of the CL of isolated granulocytes was carried out with native blood of isolated polymorphonuclear leucocytes (PMNL), which had been adjusted with PBS-Puffer to 10^6 […].
(§7) The test substances were first together with the isolated granulocytes or with the whole blood incubated at room temperature for 10 minutes and then in biclumate for 10 minutes at 37° C. After addition of the opsonised zymosan, measurement in the biolumat at 37° C. started. […] A curve which was typical for each substance was obtained. The integrated surfaces are directly proportional to the intensity of the CL-response.
(§8) For determining the stimulation of the "respiratory-burst" of granulocytes,which had taken place, the same formula as for the granulocytic test was used.
20 ml of native blood were mixed with 30 mg EDTA. 15 ml of this blood were mixed with 7 ml of dextran in a syringe and allowed to stand at room temperature for 30 minutes. The leucocyte-containing supernatant was transfered into a sterile centrifugal tube and centrifugated at 1000 r.p.m. for 10 minutes. The deposit consisted of leucocytes and residual portions of erythrocytes, which can influence measurement by their colour quench. The residual erythrocytes were removed by hypotonic lyis. For this purpose, the deposit was suspended in 0.25% of NaCl-solution and agitated on the whirlmix for 20 seconds. Then 20 ml of 1.6% NaCl-solution were admixed and agitated again. After centrifugation at 2000 r.p.m. for 10 minutes, the supernatant was sucked off and the whole process was repeated twice. Subsequently, the deposit was suspended in 2 ml of PBS-buffer and diluted 1:10 with Turcks-solution. It was adjusted in the Neubauer's chamber with PBS-buffer to 10^6 -cells/ml.
630 μl of veronal-buffered salt solution
(§9) 100 μl of lucigenine-solution
(§10) 200 μl of substance dissolved in PBS and PBS as control
(§11) After preincubation at room temperature for 10 minutes and subsequent incubation for 10 minutes at 37° C. in 6-channel-Biolumat, 40 μl of opsonised zymosan were admixed under through stirring and measurement was started. Measuring was stopped after 60 minutes.
(§12) The CL-response of the samples was stored by a computer over the measuring period, and after measurement illustrated in the form of a curve. By integration of the surfaces, the intensity of the CL-response of the respective sample was obtained in cpm.
(§13) The increase S of the CL-response by a test substance was calculated according to [formula]

The test system of the next assay is diluted whole blood. The assay is described as follows: Chemiluminescence test (CL), whole blood method. The assay is classed as cell-based. The conditions noted are these: Homo sapiens, 1 h, read-out: Percental increase of the CL-response. The method, then: as §1, §2, §3, §4, §5, §6, §7, §8
20 ml of native blood were mixed with 30 mg EDTA as anti-coagulant and diluted 1:100 with PBS-buffer.
460 μl of veronal-buffered salt solution
200 μl of diluted whole blood
as §9, §10, §11, §12, §13

The test system of assay [2] is ascites cells of Walker-250-carcinosarcoma. Kind of assay: Cytotoxicity test by the 3H-thymidine-incorporation test on ascites cells. The assay is classed as cell-based, rats. The settings on record: Rattus norvegicus, read-out: mean value of the inhibition of 3H-thymidine incorporation. An excerpt: 5. Cytotoxicity test by the ^3 H-thymidine-incorporation test on ascites cells
Since in the granulocytic test some substances lyse the granulocytes at high concentrations we examined the cell-damaging effect at the model of the ^3 H-thymidine-incorporation test in ascites cells to be able to find a possible relation between the phagocytosis increase and cytotoxicity in potential active substances.
In this in-vitro-test system according to WEITZEL et al (H oppe-Seyler's Z. physiolog. Chem. 348, 433, 1967) the cytotoxicity of substances by inhibition of the DNA-synthesis of tumour cells can be numerically determined by the changed incorporation rates of ^3 H-thymidine in ascites cells of Walter-250-carcinos arcoma of rats.
The test was carried out as follows: 3 ml of cell suspension of Walker-250-carcinosarcoma-ascites were mixed with 10 ml of MEDIUM L-15 (Boehringer) in a 50 ml centrifugal glass and centrifugated for 10 minutes. The supernatant was decanted and the centrifugal glass was filled up with medium to 1 cm below the rim. From the stirred cell suspension 1 ml (corresponds to 2×10^6 cells/ml) per sample was given into a centrifugal glass and 500 μl of the test solution were added, the control test was carried out with 500 μl of medium. […] The filters were given in polyethylene flasks and the activities were measured in toluene-scintillator. […]
(Uptake of a labelled nucleoside into DNA is a usual measure of proliferation.)

Another assay relates to macrophage-phagocytosis. The settings on record: concentrations of 10^-4 % and 10^-5 %; cited from earlier work.
Assay [3] concerns neutrophil granulocytes (PMNL). Kind of assay: Granulocytic test modified after BRANDT (phagocytosis of yeast particles). The assay is classed as cell-based, human. The settings on record: up to dilutions of 10^-6 %. An excerpt:
1. […] They represent about 60-70% of all leucocytes in the human blood. The phagocytosis effect of all these granulocytes can be measured in vitro according to a method developed by BRAND (Scand. J. Haematol. Suppl. 2, 1967) and modified by TYMPNER (Munich Med. Weekly 8, 251, 1978).
A granulocytic fraction is taken from the blood of healthy probands (PMNL--abbreviation of polymorphonuclearleucocytes)
This PMNL-fraction mainly consists of neutrophil granulocytes and few eosinophil and basophil granulocytes as well as of lymphocytes, monocytes and thrombocytes. After addition of a defined amount of yeast cells (Saccharomyces cerevisiae) and the substance to be tested incubation is carried out for 10 minutes at 37° C., the suspension is spread on an object carrier and incubated at room temperature for further 35 minutes. Then the spreads are coloured and microscopically evaluated. 100 PMNL-cells are selected per object carrier, and it is determined how many yeast particles of the individual cells have been phagocytised. The phagocytosis index indicates the average number of phagocytised yeast particles.
15 ml of heparinised venous blood of clinically healthy adults was diluted with 1.5% of dextran T 500 (Pharmacia) 2:1 and allowed to stand at room temperature for 30 minutes. The supernatant containing leucocytes was injected into a sterile plastic tube and centrifugated for 7 minutes at 500 r.p.m. The granulocytes in the deposit were washed twice with 5 ml of PPM I-buffer in each case. Then the granulocytes were suspended in about 5 ml of buffer and adjusted in the Neubauer's chamber to a concentration of 5×10^6 cells/ml.
Yeast suspended in 0.9% of NaCl was heated to 100° C., three times filtered through gaze and adjusted to 3-5×10^7 particles/ml.
The serum of 5 clinically healthy adults was mixed and frozen in portions of 5 ml. For the test dilution was carried out with 0.9% of NaCl 1:10.
The test was carried out as follows: 0.2 ml of substance dissolved in 0.9% of NaCl and 0.2 ml of 0.9% NaCl, as a control substance, were pipetted to 0.2 ml, each, of pool serum, granulocyte- and yeast suspension and first incubated for 10 minutes at 37° C. Then 0.5 ml of each preparation were applied to an object carrier and incubated in a humid chamber at room temperature for further 35 minutes. Granulocytes deposited, the supernatant was carefully washed with 0.9% of NaCl, and the object carrier was dried with a dryer.
100 granulocytes were counted out per object carrier, and it was determined how many yeast particles of the individual cells had been phagocytised. The phagocytosis index (PJ) indicates the average number of yeast particles per granulocyte. The increase (S) of the phagocytosis activity in the blank value was calculated according to: [formula]

The mark [4] stands for this setting: isolated granulocytes, concentration 10^-4 %.
[5] abbreviates: isolated granulocytes, concentration 10^-5 %.
[6] abbreviates: isolated granulocytes, concentration 10^-6 %.
The mark [7] stands for this setting: isolated granulocytes, concentration 10^-7 %.
Setting [8] is: isolated granulocytes, concentration 10^-8 %.

Consider three molecules from patent US5302611A, “Oxindole alkaloids having properties stimulating the immunologic system & preparation containing the same” (Keplinger; Klaus, priority 1980, dated 1994).

Where two headings read alike, the source gives them in different places.

Turning to `COc1cccc2c1cc([N+](=O)[O-])c1c(C(=O)O)cc3c(c12)OCO3` [aristolochic acid], the activation at 0.0001 % in assay [1] (Homo sapiens, 1 h, PMNL, concentration 10^-4 %, read-out: Percental increase of the CL-response) turned out to be 85.1%; in assay [1] (Homo sapiens, PMNL, 1 h, isolated granulocytes, concentration 10^-4 %, read-out: Increase of CL-response), 126%; in the assay on diluted whole blood (concentration 10^-4 %), 19.2%. In addition, the activation at 1e-05 % stood at 93.5% in assay [1] (Homo sapiens, 1 h, PMNL, concentration 10^-5 %, read-out: Percental increase of the CL-response); 160% in assay [1] (Homo sapiens, PMNL, 1 h, isolated granulocytes, concentration 10^-5 %, read-out: Increase of CL-response); 21.8% with diluted whole blood (concentration 10^-5 %). Besides, the activation at 1e-06 % in assay [1] (Homo sapiens, 1 h, PMNL, concentration 10^-6 %, read-out: Percental increase of the CL-response) was determined as 68.3%; in assay [1] (Homo sapiens, PMNL, 1 h, isolated granulocytes, concentration 10^-6 %, read-out: Increase of CL-response), 69.8%; with diluted whole blood (concentration 10^-6 %), 14%. Also, the activation at 1e-07 % in assay [1] (Homo sapiens, 1 h, PMNL, concentration 10^-7 %, read-out: Percental increase of the CL-response) was determined as 61.9%; in assay [1] (Homo sapiens, PMNL, 1 h, isolated granulocytes, concentration 10^-7 %, read-out: Increase of CL-response), 52.8%; in the assay on diluted whole blood (concentration 10^-7 %), 5.5%. Also, the activation at 1e-08 % was 58.7% in assay [1] (Homo sapiens, 1 h, PMNL, concentration 10^-8 %, read-out: Percental increase of the CL-response) and 93.4% in assay [1] (Homo sapiens, PMNL, 1 h, isolated granulocytes, concentration 10^-8 %, read-out: Increase of CL-response). Further, in assay [1] (Homo sapiens, 1 h, PMNL, concentration 10^-9 %, read-out: Percental increase of the CL-response), the activation at 1e-09 % stood at 31.3%. Besides, the Peak-Maximum in assay [1] (setting [4]) came out at 4.80 cpm × 10^5; in assay [1] (setting [5]), 5.52 cpm × 10^5; in assay [1] (setting [6]), 3.40 cpm × 10^5; in assay [1] (setting [7]) it was 3.24 cpm × 10^5; in assay [1] (setting [8]), 4.10 cpm × 10^5. Besides, the tmax in assay [1] (setting [4]) amounted to 30.0 min; in assay [1] (setting [5]), 32.6 min; in assay [1] (setting [6]) it was 34.6 min; in assay [1] (setting [7]) it was 32.0 min; in assay [1] (setting [8]) it was 29.3 min. The “concentration of the efficiency maximum in the CL-test” value in assay [1] (isolated granulocytes, lower by a power of ten than in the granulocytic test) is given as 10^-5%. The activation at 0.001 % with diluted whole blood (concentration 10^-3 %) amounted to 51.9%.
Take `CN(Cc1cnc2nc(N)nc(N)c2n1)c1ccc(C(=O)N[C@@H](CCC(=O)O)C(=O)O)cc1` [Methotrexat®, N-[4-[[(2,4-Diamino-6-pteridinyl)methyl]methylamino]benzoyl]-L-glutamic acid]: the inhibition at 2000 µg/mL in assay [2] was determined as 43%.
With `CC[C@]1(O)C[C@H]2CN(CCc3c([nH]c4ccccc34)[C@@](C(=O)OC)(c3cc4c(cc3OC)N(C=O)[C@H]3[C@@](O)(C(=O)OC)[C@H](OC(C)=O)[C@]5(CC)C=CCN6CC[C@]43[C@@H]65)C2)C1` [vincristine, reference compound], the “in-vitro-inhibition of the macrophage-phagocytosis” value in the assay with macrophage-phagocytosis was “in-vitro-inhibitionof the macrophage-phagocytosis has been found”. Besides, the “effect in the granulocytic test” value in assay [3] is on record as “no effects have been found”.
